A word on the pIC50: it is the IC50 on a negative log10 scale, so that one unit is a factor of ten. A word on the pEC50: it is −log10 of the EC50, conventionally taken in molar units.

pEC50, pIC50: −log10 of the molar value. Read-outs that look alike come from different tables or passages of the source.

We go through 24 compounds from patent publication US11584747B2, “Substituted pyridopyrimidinonyl compounds useful as T cell activators” (BRISTOL-MYERS SQUIBB COMPANY, priority 2019, dated 2023).

One test deals with whole blood (pERK). Nature of the test: pERK Whole Blood assay (Table A; no whole-blood pERK method described). It is filed as cell-based. As to conditions: normalized.
The target of test [1] is T1, human DGKα (Homo sapiens (Human), UniProt P23743). Briefly: DGKα ADPGLO assay (detergent/lipid micelle substrate). In kind it is biochemical. As to conditions: truncated DGK alpha; read-out: DGK alpha ADPGLO (Truncated) IC50. The protocol: DGK Alpha ADPGLO (Truncated) IC50 (uM)
The detergent/lipid micelle was prepared by combining 15 g phosphatidylserine (Avanti 840035P) and 1 g diacylglycerol (8008110) and dissolving into 150 mL chloroform in a 2 L round bottom flask. Chloroform was removed under high vacuum by rotary evaporation. […] The lipid/detergent solution was split into 5 mL aliquots and stored at −80° C.
(In general: ADP-Glo first removes unused ATP, then detects ADP through luciferase.)

A further test has as its target human DGKζ (Homo sapiens (Human), UniProt Q13574). Briefly: DGKζ LIPGLO assay (extruded liposome substrate, ADP-Glo luminescence). In kind it is biochemical.
The subject of test [2] is human venous whole blood (IFN-γ). Nature of the test: Human whole blood IFN-γ assay. In kind it is cell-based. The protocol:
Human venous whole blood (22.5 μL per well), obtained from healthy donors, was pre-treated with compounds for one hour at 37° C. in a humidified 95% air/5% CO2 incubator. The blood was stimulated with 2.5 μL anti-human CD3 and anti-CD28 mAb at a final concentration of 1 μg/mL each for 24 hours at 37° C. IFN-γ in the supernatants was measured using AlphLISA kit (Cat #AL217).

Test [3] has as its target T1, human DGKα. Briefly: DGKα LIPGLO assay (extruded liposome substrate, ADP-Glo luminescence). It is filed as biochemical.
Where [4] appears, read: liposome assay, read-out: DGK zeta LIPGLO IC50.
The mark [5] stands for this setting: whole blood, normalized to 3 μM reference compound as 100% activation, read-out: IFN-γ Whole Blood Normalized EC50.
The mark [6] stands for this setting: Homo sapiens, whole blood, normalized to 3 μM reference compound as 100% activation, read-out: IFN-γ Whole Blood Normalized EC50.
Setting [7] is: liposome assay, read-out: DGK alpha LIPGLO IC50.

T1 sequence (P23743 whole entry, looked up, the tested form may be a part): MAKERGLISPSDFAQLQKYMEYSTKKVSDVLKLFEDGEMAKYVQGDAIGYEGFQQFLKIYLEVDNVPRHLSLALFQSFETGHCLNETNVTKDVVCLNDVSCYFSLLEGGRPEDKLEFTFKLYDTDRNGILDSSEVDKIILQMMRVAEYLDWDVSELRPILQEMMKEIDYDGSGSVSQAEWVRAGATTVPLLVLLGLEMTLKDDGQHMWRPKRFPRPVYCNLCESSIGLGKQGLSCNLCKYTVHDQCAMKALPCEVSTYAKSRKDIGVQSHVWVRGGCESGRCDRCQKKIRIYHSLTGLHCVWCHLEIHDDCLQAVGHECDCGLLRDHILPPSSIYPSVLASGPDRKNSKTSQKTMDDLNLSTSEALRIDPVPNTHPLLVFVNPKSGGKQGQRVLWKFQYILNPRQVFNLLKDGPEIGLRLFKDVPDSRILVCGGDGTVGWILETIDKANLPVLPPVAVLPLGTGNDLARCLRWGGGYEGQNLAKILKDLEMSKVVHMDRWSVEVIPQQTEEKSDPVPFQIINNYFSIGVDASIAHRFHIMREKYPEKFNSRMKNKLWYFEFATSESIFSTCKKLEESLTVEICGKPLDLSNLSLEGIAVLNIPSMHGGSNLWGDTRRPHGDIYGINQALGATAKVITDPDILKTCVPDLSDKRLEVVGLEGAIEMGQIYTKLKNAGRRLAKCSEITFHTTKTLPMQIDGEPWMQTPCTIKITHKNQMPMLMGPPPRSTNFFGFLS
Sequence of human DGKζ (Q13574 other isoform, or with tags, fused parts or gaps): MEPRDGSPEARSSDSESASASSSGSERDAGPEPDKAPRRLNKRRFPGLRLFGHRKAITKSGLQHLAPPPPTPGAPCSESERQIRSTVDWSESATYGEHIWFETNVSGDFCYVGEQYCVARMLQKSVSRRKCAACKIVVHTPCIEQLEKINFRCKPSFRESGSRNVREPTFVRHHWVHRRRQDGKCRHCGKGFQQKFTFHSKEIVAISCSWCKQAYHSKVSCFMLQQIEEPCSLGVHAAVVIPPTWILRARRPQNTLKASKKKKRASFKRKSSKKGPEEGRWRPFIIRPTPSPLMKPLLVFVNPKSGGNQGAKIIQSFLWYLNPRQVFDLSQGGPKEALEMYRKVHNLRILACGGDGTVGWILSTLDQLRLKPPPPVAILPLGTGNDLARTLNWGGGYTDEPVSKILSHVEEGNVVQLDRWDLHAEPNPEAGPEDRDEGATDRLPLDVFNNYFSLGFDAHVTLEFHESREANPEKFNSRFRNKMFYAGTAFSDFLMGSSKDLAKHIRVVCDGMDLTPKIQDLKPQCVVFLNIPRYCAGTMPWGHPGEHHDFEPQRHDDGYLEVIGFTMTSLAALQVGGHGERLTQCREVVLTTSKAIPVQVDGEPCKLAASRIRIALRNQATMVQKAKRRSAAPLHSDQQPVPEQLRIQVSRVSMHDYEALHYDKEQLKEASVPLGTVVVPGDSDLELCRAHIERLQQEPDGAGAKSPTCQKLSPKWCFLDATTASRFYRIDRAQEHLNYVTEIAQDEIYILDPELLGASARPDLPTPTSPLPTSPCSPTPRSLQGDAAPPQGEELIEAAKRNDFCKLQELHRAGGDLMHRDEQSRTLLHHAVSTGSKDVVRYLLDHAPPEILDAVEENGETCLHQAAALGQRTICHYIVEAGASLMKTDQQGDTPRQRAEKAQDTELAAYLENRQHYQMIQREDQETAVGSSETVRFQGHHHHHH

In the case of `CCC(c1ccc(OC2CC2)cc1)N1C[C@H](CC)N(c2nc(=O)n(C)c3ccc(C#N)nc23)C[C@H]1CC` (stereo partly drawn) [Example 256, 4-((2S,5R)-4-(1-(4-cyclopropoxyphenyl)propyl)-2,5-diethylpiperazin-1-yl)-1-methyl-2-oxo-1,2-dihydropyrido[3,2-d]pyrimidine-6-carbonitrile], the values for the pIC50 in the test with whole blood (pERK), at human DGKα [1] and at human DGKζ (setting [4]) were 6.54, 5.82 and 5.53, respectively.

Take `CCC(c1ccc(OC2CC2)cc1)N1C[C@H](CC)N(c2nc(=O)n(C)c3ccc(C#N)nc23)C[C@H]1CC` (stereo partly drawn) [Example 255, 4-((2S,5R)-4-(1-(4-cyclopropoxyphenyl)propyl)-2,5-diethylpiperazin-1-yl)-1-methyl-2-oxo-1,2-dihydropyrido[3,2-d]pyrimidine-6-carbonitrile]: the results for the pIC50 in the test with whole blood (pERK), at human DGKα [1] and on human DGKζ (setting [4]) were 6.27, 7.24 and 6.92, respectively.

For `CC[C@H]1CN(C(c2ccc(OC(C)C)cc2)C(C)C)[C@H](CC)CN1c1nc(=O)n(C)c2ccc(C#N)nc12` (stereo partly drawn) [Example 261, 4-((2S,5R)-2,5-diethyl-4-(1-(4-isopropoxyphenyl)-2-methylpropyl)piperazin-1-yl)-1-methyl-2-oxo-1,2-dihydropyrido[3,2-d]pyrimidine-6-carbonitrile], the pIC50 was 6.17 with whole blood (pERK), 6.77 at human DGKα [1] and 7.77 at human DGKζ (setting [4]).

On to `CCC(c1ccc(C(F)(F)F)cc1)N1C[C@H](CC)N(c2nc(=O)n(C)c3ccc(C#N)nc23)C[C@H]1CC` (single isomer, unassigned) [Example 6], for which the pIC50 in the test on whole blood (pERK) was 5.16; on human DGKα [1], 7.24.

`CC[C@H]1CN(C(C)c2cccc(OC(F)(F)F)n2)[C@H](CC)CN1c1nc(=O)n(C)c2ccc(C#N)nc12` (stereo partly drawn) [Example 246, 4-((2S,5R)-2,5-diethyl-4-(1-(6-(trifluoromethoxy)pyridin-2-yl)ethyl)piperazin-1-yl)-1-methyl-2-oxo-1,2-dihydropyrido[3,2-d]pyrimidine-6-carbonitrile]: the pIC50 in the test on whole blood (pERK) is 6.36; on human DGKα [1] it was 5.33; on human DGKζ (setting [4]), 5.23.

Take `CC[C@H]1CN(C(C)c2ccc(CN3C[C@@H](C)O[C@@H](C)C3)cc2)[C@H](CC)CN1c1nc(=O)n(C)c2ccc(C#N)nc12` (stereo partly drawn) [Example 291, 4-((2S,5R)-4-(1-(4-(((2S,6R)-2,6-dimethylmorpholino)methyl)phenyl)ethyl)-2,5-diethylpiperazin-1-yl)-1-methyl-2-oxo-1,2-dihydropyrido[3,2-d]pyrimidine-6-carbonitrile]: the results for the pIC50 in the test on whole blood (pERK), at human DGKα [1] and on human DGKζ (setting [4]) were 6.41, 6.96 and 6.37, respectively.

As for `CC[C@H]1CN(C(c2ccc(F)cc2)c2nc(C3CC3)no2)[C@H](CC)CN1c1nc(=O)n(C)c2ccc(C#N)nc12` (single isomer, unassigned) [Example 111], the pEC50 in test [2] (setting [5]) was 7.68. The compound also showed a pIC50 with whole blood (pERK) of 7.05.

As for `C[C@@H]1CN(c2nc(=O)n(C)c3ccc(C#N)nc23)[C@@H](C)CN1C(c1ccc(F)cc1)c1ccc(C(F)(F)F)cn1` (single isomer, unassigned) [Example 127], the pEC50 in test [2] (setting [6]) was 6.39. Moreover, the pIC50 in the test on whole blood (pERK) was 6.62.

`CC[C@H]1CN(C(c2ccc(OC)cc2)C(C)C)[C@H](CC)CN1c1nc(=O)n(C)c2ccc(C#N)nc12` (stereo partly drawn) [Example 250, 4-((2S,5R)-2,5-diethyl-4-(1-(4-methoxyphenyl)-2-methylpropyl)piperazin-1-yl)-1-methyl-2-oxo-1,2-dihydropyrido[3,2-d]pyrimidine-6-carbonitrile]: the pIC50 was 5.74 in the test with whole blood (pERK), 6.48 on human DGKα [1] and 5.94 on human DGKζ (setting [4]).

With `CC[C@H]1CN(C(C)c2ccc(C(F)(F)F)cc2N2CCOCC2)[C@H](CC)CN1c1nc(=O)n(C)c2ccc(C#N)nc12` (stereo partly drawn) [Example 194, 4-((2S,5R)-2,5-diethyl-4-(1-(2-morpholino-4-(trifluoromethyl)phenyl)ethyl)piperazin-1-yl)-1-methyl-2-oxo-1,2-dihydropyrido[3,2-d]pyrimidine-6-carbonitrile], the pIC50 with whole blood (pERK) was 6.57; on human DGKζ (setting [4]), 5.28.

On to `CC[C@H]1CN(C(C)c2ccc(C(F)(F)F)cc2F)[C@H](CC)CN1c1nc(=O)n(C)c2ccc(C#N)nc12` (single isomer, unassigned) [Example 25], for which the pEC50 in test [2] (setting [5]) is 5.90. Further, the values for the pIC50 at human DGKα [1], at human DGKζ (setting [4]) and on human DGKα [3] (setting [7]) were 6.48, 5.87 and 5.91, respectively.

Take `CC[C@H]1CN(C(c2ccc(OC)cc2)C(C)C)[C@H](CC)CN1c1nc(=O)n(C)c2ccc(C#N)nc12` (stereo partly drawn) [Example 249, 4-((2S,5R)-2,5-diethyl-4-(1-(4-methoxyphenyl)-2-methylpropyl)piperazin-1-yl)-1-methyl-2-oxo-1,2-dihydropyrido[3,2-d]pyrimidine-6-carbonitrile]: the values for the pIC50 in the test on whole blood (pERK) and on human DGKζ (setting [4]) were 6.38 and 7.40, respectively.

Regarding `CCC(c1ccc(OC(F)(F)F)cc1F)N1C[C@H](C)N(c2nc(=O)n(C)c3ccc(C#N)nc23)C[C@H]1CC` (single isomer, unassigned) [Example 86], in test [2] (setting [5]), the pEC50 is 5.81. For the same compound, the figures for the pIC50 on human DGKα [1], at human DGKζ (setting [4]) and on human DGKα [3] (setting [7]) were 6.38, 5.63 and 5.53, respectively.

In the case of `CC[C@H]1CN(C(c2ccc(F)cc2)c2nc(C3CC3)no2)[C@H](CC)CN1c1nc(=O)n(C)c2ccc(C#N)nc12` (single isomer, unassigned) [Example 110], in test [2] (setting [5]), the pEC50 is 8.05. Moreover, the pIC50 with whole blood (pERK) was 7.82.

With `CC[C@@H]1CN(c2nc(=O)n(C)c3ccc(C#N)nc23)[C@@H](C)CN1C(c1ccc(Cl)cc1)c1ccccn1` (single isomer, unassigned) [Example 95], the pEC50 in test [2] (setting [5]) was 6.43. The compound further showed a pIC50 in the test with whole blood (pERK) of 4.98.

As to `CC[C@H]1CN(C(c2ccc(OC(C)C)cc2)C(C)C)[C@H](CC)CN1c1nc(=O)n(C)c2ccc(C#N)nc12` (stereo partly drawn) [Example 262, 4-((2S,5R)-2,5-diethyl-4-(1-(4-isopropoxyphenyl)-2-methylpropyl)piperazin-1-yl)-1-methyl-2-oxo-1,2-dihydropyrido[3,2-d]pyrimidine-6-carbonitrile], the pIC50 with whole blood (pERK) is 5.38.

Regarding `CC[C@@H]1CN(c2nc(=O)n(C)c3ccc(C#N)nc23)[C@@H](C)CN1C(C)c1ccc(C(F)(F)F)cc1` (single isomer, unassigned) [Example 8], the pIC50 is 6.74 with whole blood (pERK) and 6.85 at human DGKα [1].

Take `CC[C@@H]1CN(c2nc(=O)n(C)c3ccc(C#N)nc23)[C@@H](C)CN1C(c1ccc(F)cc1)c1cccc(C(F)(F)F)n1` (single isomer, unassigned) [Example 66]: in test [2] (setting [5]), the pEC50 was 7.12. Further, the pIC50 is 8.70 at human DGKα [1], 6.96 on human DGKζ (setting [4]) and 6.64 at human DGKα [3] (setting [7]).

As for `CCC(c1ccc(OC(F)(F)F)cc1)N1C[C@H](CC)N(c2nc(=O)n(C)c3ccc(C#N)nc23)C[C@H]1CC` (single isomer, unassigned) [Example 37], in test [2] (setting [5]), the pEC50 is 4.70. Besides, the values for the pIC50 on human DGKα [1], on human DGKζ (setting [4]) and at human DGKα [3] (setting [7]) were 6.92, 6.33 and 7.16, respectively.

On to `CC[C@@H]1CN(c2nc(=O)n(C)c3ccc(C#N)nc23)[C@@H](C)CN1C(c1ccc(F)cc1)c1ccc(C(F)(F)F)cn1` (single isomer, unassigned) [Example 47], for which the pEC50 in test [2] (setting [6]) was 7.49. In the test with whole blood (pERK), this compound had a pIC50 of 7.70.

As to `CC[C@@H]1CN(c2nc(=O)n(C)c3ccc(C#N)nc23)[C@@H](C)CN1C(c1ccc(F)cc1)c1ccc(C(F)(F)F)cn1` (stereo partly drawn) [Example 46, 4-((2S,5R)-5-Ethyl-4((4-fluorophenyl)(5-(trifluoromethyl)pyridin-2-yl)methyl)-2-methylpiperazin-1-yl)-1-methyl-2-oxo-1,2-dihydropyrido[3,2-d]pyrimidine-6-carbonitrile], the pEC50 in test [2] (setting [6]) is 7.14. The compound further showed a pIC50 in the test on whole blood (pERK) of 7.37.

As to `CCC(c1ccc(C(F)(F)F)cc1)N1C[C@H](C)N(c2nc(=O)n(C)c3ccc(C#N)nc23)C[C@H]1CC` (single isomer, unassigned) [Example 90], the pIC50 at human DGKα [1] was 6.85; on human DGKζ (setting [4]) it was 6.23; at human DGKα [3] (setting [7]), 6.92.

For `C[C@@H]1CN(c2nc(=O)n(C)c3ccc(C#N)nc23)[C@@H](C)CN1C(c1ccc(F)cc1)c1ccc(C#N)cc1` (stereo partly drawn) [Example 375, 4-((2S,5R)-4-((4-cyanophenyl)(4-fluorophenyl)methyl)-2,5-dimethylpiperazin-1-yl)-1-methyl-2-oxo-1,2-dihydropyrido[3,2-d]pyrimidine-6-carbonitrile], the negative logarithm of the EC50 (pEC50) in test [2] (human whole blood, anti-CD3 plus anti-CD28 stimulation, 24 hours, read-out: IFN-γ Whole Blood EC50) is 5.67. The pIC50 on human DGKζ (liposome (LIPGLO) assay, read-out: DGK zeta (liposome assay) IC50) was 5.22; on human DGKα [3] (liposome (LIPGLO) assay, read-out: DGK alpha (liposome assay) IC50) it was 5.86.

On to `CC(c1ccc(C(F)(F)F)cc1)N1C[C@H](C)N(c2nc(=O)n(C)c3ccc(C#N)nc23)C[C@H]1C` (single isomer, unassigned) [Example 140], for which the pEC50 in test [2] (setting [5]) is 6.37. The pIC50 on human DGKζ (setting [4]) was 6.44; on human DGKα [3] (setting [7]), 6.74.
